Data reported in article PMC11879280, “Antimicrobial activity of peptoids against Metallo-β-lactamase-producing Klebsiella pneumoniae, Acinetobacter baumannii, Pseudomonas aeruginosa, and other WHO priority pathogens, including Candida auris” (Journal of Applied Microbiology, 2025).
Where two headings read alike, the source gives them in different places. Square brackets hold non-standard residues; d marks the D form. Peptide text beside a SMILES is read from it. N(tridecyl)Gly = CCCCCCCCCCCCCNCC(=O)O; Nspe = C[C@H](NCC(=O)O)c1ccccc1; Nlys = NCCCCNCC(=O)O

Tests used:
[1] = system: En. cloacae 005
Experimental: (§1) Briefly, bacteria were suspended in cation-adjusted Mueller–Hinton broth (CAMHB; Oxoid, UK) for antibiotics, or MHB (Oxoid, UK) for peptidomimetics to obtain 5 × 10^5 colony forming unit (CFU) ml^−1. […] Positive controls contained only microbes, and blanks contained only media. Microbial suspensions (100 µl) were added to wells, plates wrapped, and incubated at 37°C, 120 rpm for 16–20 h. After incubation, suspensions were removed, log10 diluted, and plated on Trypticase Soya Agar with phosphatidylcholine and Tween 80 to determine minimum bactericidal or fungicidal concentration (MBC or MFC). […] Geometric mean MIC of the peptoids were calculated to evaluate the broad overview of antimicrobial activity across the pathogens.

[2] = system: E. coli 0010
Experimental: as §1

[3] = system: En. cloacae 001
Experimental: as §1

[4] = system: A. baumannii 008
Experimental: as §1

[5] = system: E. coli 005
Experimental: as §1

[6] = system: E. coli 0011
Experimental: as §1

[7] = system: P. aeruginosa 216
Experimental: as §1

[8] = system: En. cloacae 003
Experimental: as §1

[9] = system: A. baumannii 005
Experimental: as §1

[10] = system: S. aureus 04
Experimental: as §1

[11] = system: A. baumannii 007
Experimental: as §1

[12] = system: P. aeruginosa 33
Experimental: as §1

[13] = system: K. pneumoniae JIE4212
Experimental: as §1

[14] = system: S. aureus 105
Experimental: as §1

[15] = system: Enteroc. faecalis NCTC 13 379
Experimental: as §1

[16] = system: E. coli 0015
Experimental: as §1

[17] = system: A. baumannii 006
Experimental: as §1

[18] = system: horse red blood cells (RBCs); assay: Haemolysis assay; type: cell-based
Experimental: The haemolytic activity of the peptidomimetics was performed to determine mammalian cell safety. This assay used horse red blood cells (RBCs) (Sigma–Aldrich, USA) as described previously (Willcox et al. [2008], Chongsiriwatana et al. [2017], Yasir et al. [2019b]). RBCs were washed three times with PBS at 470 g for 5 min. Peptoids (0.5–250 μg ml^−1) were prepared in PBS and added to washed RBCs, then incubated at 37°C for 4 h. After incubation, cells were centrifuged at 1057 g for 10 min, and the supernatant’s OD at 540 nm was measured for lysis. PBS-only RBCs served as the negative control (no haemolysis), and Milli-Q water-treated RBCs as the positive control (100% lysis). Percent haemolysis was calculated as: (ODT − ODNC)/(ODPC − ODNC) × 100, where ODT, ODNC, and ODPC are the absorbances of the test, negative, and positive controls, respectively. This experiment was performed in triplicate.

[19] = system: C. auris strains; settings: two C. auris strains
Experimental: as §1
(§2) The therapeutic indices (TIs) of the compounds were calculated with the use of following formula: […]

[20] = system: MBL-producing bacteria; assay: Geometric mean MIC, therapeutic index and selectivity ratio, MBL-producing bacteria; type: cell-based
Experimental: as §1
The test was performed as per the manufacturer’s instructions. Briefly, the strips were applied to a lawn culture of bacteria maintained at 1.5 × 10^8 CFU ml^−1 on Mueller–Hinton agar (Oxoid, UK) and incubated for 20 h at 37°C.
as §2

[21] = En. cloacae 005, MHB (melimine/Mel4 with 0.2% BSA, 0.01% acetic acid), mean MIC
[22] = E. coli 0010, MHB (melimine/Mel4 with 0.2% BSA, 0.01% acetic acid), mean MIC
[23] = En. cloacae 001, MHB (melimine/Mel4 with 0.2% BSA, 0.01% acetic acid), mean MIC
[24] = E. coli 005, MHB (melimine/Mel4 with 0.2% BSA, 0.01% acetic acid), mean MIC
[25] = E. coli 0011, MHB (melimine/Mel4 with 0.2% BSA, 0.01% acetic acid), mean MIC
[26] = P. aeruginosa 216, MHB (melimine/Mel4 with 0.2% BSA, 0.01% acetic acid), mean MIC
[27] = En. cloacae 003, MHB (melimine/Mel4 with 0.2% BSA, 0.01% acetic acid), mean MIC
[28] = A. baumannii 005, MHB (melimine/Mel4 with 0.2% BSA, 0.01% acetic acid), mean MIC
[29] = A. baumannii 007, MHB (melimine/Mel4 with 0.2% BSA, 0.01% acetic acid), mean MIC
[30] = K. pneumoniae JIE4212, MHB (melimine/Mel4 with 0.2% BSA, 0.01% acetic acid), mean MIC
[31] = S. aureus 105, MHB (melimine/Mel4 with 0.2% BSA, 0.01% acetic acid), mean MIC
[32] = Enteroc. faecalis NCTC 13 379, MHB (melimine/Mel4 with 0.2% BSA, 0.01% acetic acid), mean MIC
[33] = E. coli 0015, MHB (melimine/Mel4 with 0.2% BSA, 0.01% acetic acid), mean MIC
[34] = A. baumannii 006, MHB (melimine/Mel4 with 0.2% BSA, 0.01% acetic acid), mean MIC
[35] = horse RBCs in PBS, 37°C, 4 h, value in brackets

Structure (SMILES)	MIC of peptidomimetics [1] [µM]	MIC of peptidomimetics [1, 21] [µg/mL]	MIC of peptidomimetics [2]; 0010 [µM]	MIC of peptidomimetics [2, 22] [µg/mL]	MIC of peptidomimetics [3] [µM]	MIC of peptidomimetics [3, 23] [µg/mL]	MIC of peptidomimetics [4]; 008	MIC of peptidomimetics [5]; 005 [µM]	MIC of peptidomimetics [5, 24] [µg/mL]	MIC of peptidomimetics [6]; 0011 [µM]	MIC of peptidomimetics [6, 25] [µg/mL]	MIC of peptidomimetics [7]; 216 [µM]	MIC of peptidomimetics [7, 26] [µg/mL]	MIC of peptidomimetics [8] [µM]	MIC of peptidomimetics [8, 27] [µg/mL]	MIC of peptidomimetics [9]; 005 [µM]	MIC of peptidomimetics [9, 28] [µg/mL]	MIC of peptidomimetics [10]; 04	MIC of peptidomimetics [11]; 007 [µM]	MIC of peptidomimetics [11, 29] [µg/mL]	also measured
C[C@@H](c1ccccc1)N(CC(N)=O)C(=O)CN(C(=O)CN(CCCCN)C(=O)CN(C(=O)CN(C(=O)CN(CCCCN)C(=O)CN(C(=O)CN(C(=O)CN(CCCCN)C(=O)CN(C(=O)CN(C(=O)CNCCCCN)[C@@H](C)c1ccccc1)[C@@H](C)c1ccccc1)[C@@H](C)c1ccccc1)[C@@H](C)c1ccccc1)[C@@H](C)c1ccccc1)[C@@H](C)c1ccccc1)[C@@H](C)c1ccccc1 [TM1] (H-[Nlys][Nspe][Nspe][Nlys][Nspe][Nspe][Nlys][Nspe][Nspe][Nlys][Nspe][Nspe]-NH2)	8.6	15.6	8.6	15.6	8.6	15.6	7.8 µg/mL	8.6	15.6	17.2	31.3	8.6	15.6	34.4	62.5	2.1	3.9	7.8 µg/mL	2.1	3.9	MIC of peptidomimetics [12]: 15.6 (8.6) µg ml^−1; MIC of peptidomimetics [12]; 33: 8.6 µmol/L; MIC of peptidomimetics [13, 30]: 15.6 µg/mL; MIC of peptidomimetics ([13]; K. pneumoniae JIE4212, value in brackets): 8.6 µM; MIC of peptidomimetics [14]; 105: 2.1 µM; MIC of peptidomimetics [14, 31]: 3.9 µg/mL; MIC of peptidomimetics [15, 32]: 31.3 µg/mL; MIC of peptidomimetics ([15]; Enteroc. faecalis NCTC 13 379, value in brackets): 17.2 µM; MIC of peptidomimetics [16]; 0015: 17.2 µM; MIC of peptidomimetics [16, 33]: 31.3 µg/mL; MIC of peptidomimetics [17]; 006: 2.1 µM; MIC of peptidomimetics [17, 34]: 3.9 µg/mL; HD10 (10% haemolytic dose) [18, 35]: 4.4 µmol/L; HD50 (50% haemolytic dose) [18, 35]: 24.6 µmol/L; HD10 (10% haemolytic dose) ([18]; red cells of horse, 4 h): 8 µg/mL; HD50 (50% haemolytic dose) ([18]; red cells of horse, 4 h): 44.8 µg/mL; Geometric mean MICCA [19]: 7.8 µg/mL; Geometric mean MICMBL [20]: 11.0 µg/mL
CCCCCCCCCCCCCNCC(=O)N(CCCCN)CC(=O)N(CC(=O)N(CC(=O)N(CCCCN)CC(=O)N(CCCCN)CC(N)=O)[C@@H](C)c1ccccc1)[C@@H](C)c1ccccc1 [TM15] (H-[N(tridecyl)Gly][Nlys][Nspe][Nspe][Nlys][Nlys]-NH2)	32.5	31.3	64.9	62.5	16.2	15.6	32.5 µM	64.9	62.5	64.9	62.5	16.2	15.6	64.9	62.5	64.9	62.5	8.1 µM	64.9	62.5	MIC of peptidomimetics ([4]; A. baumannii 008, MHB (melimine/Mel4 with 0.2% BSA, 0.01% acetic acid), mean MIC): 31.3 µg/mL; MIC of peptidomimetics ([10]; S. aureus 004, MHB (melimine/Mel4 with 0.2% BSA, 0.01% acetic acid), mean MIC): 7.8 µg/mL; MIC of peptidomimetics [12]; 33: 16.2 µmol/L; MIC of peptidomimetics ([12]; P. aeruginosa 33, MHB (melimine/Mel4 with 0.2% BSA, 0.01% acetic acid), mean MIC): 15.6 µg/mL; MIC of peptidomimetics ([13]; JIE4212): 64.9 µM; MIC of peptidomimetics [13, 30]: 62.5 µg/mL; MIC of peptidomimetics [14]; 105: 8.1 µM; MIC of peptidomimetics [14, 31]: 7.8 µg/mL; MIC of peptidomimetics [15, 32]: 31.3 µg/mL; MIC of peptidomimetics ([15]; NCTC 13): 32.4 µM; MIC of peptidomimetics [16]; 0015: 16.2 µM; MIC of peptidomimetics [16, 33]: 15.6 µg/mL; MIC of peptidomimetics [17]; 006: 64.9 µM; MIC of peptidomimetics [17, 34]: 62.5 µg/mL; HD10 (10% haemolytic dose) [18]: 24.5 µmol/L; HD50 (50% haemolytic dose) [18]: 89.7 µmol/L; HD10 (10% haemolytic dose) ([18]; red cells of horse, 4 h): 23.6 µg/mL; HD50 (50% haemolytic dose) ([18]; red cells of horse, 4 h): 86.4 µg/mL; Geometric mean MICMBL [20]: 52.6 µg/mL
